Laboratory results from patent US20250340574A1, “MODULATORS OF CYSTIC FIBROSIS TRANSMEMBRANE CONDUCTANCE REGULATOR” (Vertex Pharmaceuticals Incorporated, priority 2022, published 2025).
Read-outs that look alike come from different tables or passages of the source. Blank lines part the entries; values can stand above or below the molecule they belong to.

How the values were obtained:
[1] = amide bond, 13-membered ring, CDMT/NMM, DMF
[2] = target: T1, CFTR (F508del/MF-HBE cells) (Homo sapiens, UniProt P13569, DEL508-508); experiment: Ussing chamber assay of CFTR-mediated short-circuit currents, Assay C (0.026 μM to 25 μM, 6 concentrations); format: cell-based; conditions: with 33 nM potentiator and 18 μM Tezacaftor, 20% human serum; for Emax: read-out: C Max activity (%)
T1 construct: human bronchial epithelial (HBE) cells derived from CF subjects heterozygous for F508del and a minimal function CFTR mutation (F508del/MF-HBE); endogenous in cells; host or cells: Primary human bronchial epithelial cells from CF subjects (F508del/MF genotype), differentiated at an air-liquid interface
T1 sequence (P13569 with tags, fused parts or gaps DEL508-508): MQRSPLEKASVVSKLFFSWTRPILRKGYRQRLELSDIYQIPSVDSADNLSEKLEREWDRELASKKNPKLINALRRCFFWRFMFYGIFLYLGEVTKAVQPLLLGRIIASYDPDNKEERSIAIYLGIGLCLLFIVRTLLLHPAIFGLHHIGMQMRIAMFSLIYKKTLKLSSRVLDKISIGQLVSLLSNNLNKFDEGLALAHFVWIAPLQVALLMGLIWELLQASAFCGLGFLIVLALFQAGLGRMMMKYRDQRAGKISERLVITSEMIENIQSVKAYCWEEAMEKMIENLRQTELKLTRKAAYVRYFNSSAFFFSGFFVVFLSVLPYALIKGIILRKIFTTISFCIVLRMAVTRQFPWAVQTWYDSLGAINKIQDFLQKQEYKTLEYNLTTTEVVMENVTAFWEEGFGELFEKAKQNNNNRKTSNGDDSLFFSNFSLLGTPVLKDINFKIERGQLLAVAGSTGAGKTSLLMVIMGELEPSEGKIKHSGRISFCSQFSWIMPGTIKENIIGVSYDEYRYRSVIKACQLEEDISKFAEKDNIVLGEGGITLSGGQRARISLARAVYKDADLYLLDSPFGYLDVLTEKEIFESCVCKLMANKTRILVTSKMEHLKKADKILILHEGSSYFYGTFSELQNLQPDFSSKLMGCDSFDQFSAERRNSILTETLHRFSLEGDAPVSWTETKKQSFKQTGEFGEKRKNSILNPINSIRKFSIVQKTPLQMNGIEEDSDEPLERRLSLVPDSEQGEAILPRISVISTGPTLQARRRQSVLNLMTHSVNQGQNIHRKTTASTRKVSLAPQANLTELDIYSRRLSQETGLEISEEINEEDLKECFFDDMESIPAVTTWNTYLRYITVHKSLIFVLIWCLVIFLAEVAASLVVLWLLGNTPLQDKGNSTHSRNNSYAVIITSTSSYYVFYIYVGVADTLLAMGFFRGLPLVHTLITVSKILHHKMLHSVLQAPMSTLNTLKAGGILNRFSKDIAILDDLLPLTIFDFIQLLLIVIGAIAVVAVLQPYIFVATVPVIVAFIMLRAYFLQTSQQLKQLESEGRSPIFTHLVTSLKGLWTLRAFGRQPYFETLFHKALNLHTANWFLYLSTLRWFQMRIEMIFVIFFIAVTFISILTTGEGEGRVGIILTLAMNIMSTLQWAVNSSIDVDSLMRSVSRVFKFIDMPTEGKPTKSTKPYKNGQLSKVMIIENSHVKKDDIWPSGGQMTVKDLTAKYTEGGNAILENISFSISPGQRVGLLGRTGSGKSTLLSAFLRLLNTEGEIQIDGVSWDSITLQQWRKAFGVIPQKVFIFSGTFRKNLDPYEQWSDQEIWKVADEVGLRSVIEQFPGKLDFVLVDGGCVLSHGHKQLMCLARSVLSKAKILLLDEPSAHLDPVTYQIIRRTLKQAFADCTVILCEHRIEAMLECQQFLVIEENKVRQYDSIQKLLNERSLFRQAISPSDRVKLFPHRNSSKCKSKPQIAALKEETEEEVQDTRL
In short: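 F508del/MF-HBE cells grown at air-liquid interface were incubated 18-24 h at 37 °C in 20% human serum with correctors plus 18 μM tezacaftor and a fixed partner compound (33 nM for concentration series, 44 nM at 1 μM). ISC was read at 0 mV after 20 μM forskolin, minus the post-inhibitor current.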

Molecule: (5P,11R)-12-({6-tert-butyl-5-methyl-5H-pyrrolo[2,3-b]pyrazin-3-yl}methyl)-11-(2,2-dimethylpropyl)-7-methyl-6-[2-methyl-6-(2-methylpropyl)phenyl]-9-oxa-2λ^6-thia-3,5,12,19-tetraazatricyclo[12.3.1.1∧{4,8}]nonadeca-1(17),4(19),5,7,14(18),15-hexaene-2,2,13-trione
ring closure, yield after HPLC ([1]; 14.0 mM): 61%

Molecule: Cc1cccc(C)c1-c1cc2nc(n1)NS(=O)(=O)c1cccc(c1)C(=O)N(Cc1ccn3nc(C(C)C)cc3n1)[C@H](CC1(C)CC1)CO2
ring closure, yield after HPLC ([1]; from Cc1cccc(C)c1-c1cc(OC[C@@H](CC2(C)CC2)NCc2ccn3nc(C(C)C)cc3n2)nc(NS(=O)(=O)c2cccc(C(=O)O)c2)n1, 9.91 mM, 25.0 °C, 16.5 h): 43%

Molecule: Cc1cccc(C)c1-c1cc2nc(n1)NS(=O)(=O)c1cccc(c1)C(=O)N(Cc1cnc3oc(C(C)C)cc3n1)C(CCC(C)(C)F)CO2 (stereo not drawn)
ring closure, yield after HPLC ([1]; from Cc1cccc(C)c1-c1cc(OCC(CCC(C)(C)F)NCc2cnc3oc(C(C)C)cc3n2)nc(NS(=O)(=O)c2cccc(C(=O)O)c2)n1, 35.1 mM, 16.0 h): 65%

Molecule: Cc1cccc(C)c1-c1cc2nc(n1)NS(=O)(=O)c1cccc(c1)C(=O)N(Cc1cnc3oc(C4CC4)cc3n1)C(CCC1(C)CC1)CO2 (single isomer, unassigned; isomer 1)
ring closure, yield after HPLC ([1]; from Cc1cccc(C)c1-c1cc(OCC(CCC2(C)CC2)NCc2cnc3oc(C4CC4)cc3n2)nc(NS(=O)(=O)c2cccc(C(=O)O)c2)n1, 12.8 mM, 24.5 h): 48%

EC50 [2]: 1000 to 3000 nM
Emax [2]: > 60%
Molecule: Cc1cccc(C)c1-c1cc2nc(n1)NS(=O)(=O)c1cccc(c1)C(=O)N(Cc1cnc3sc(C4CC4)cc3n1)[C@H](CC13CC(C1)C3)CO2 [IV-42, (11R)-11-(1-bicyclo[1.1.1]pentanylmethyl)-12-[(6-cyclopropylthieno[2,3-b]pyrazin-2-yl)methyl]-6-(2,6-dimethylphenyl)-2,2-dioxo-9-oxa-2λ^6-thia-3,5,12,19-tetrazatricyclo[12.3.1.14,8]nonadeca-1(18),4(19),5,7,14,16-hexaen-13-one]
ring closure, yield after HPLC ([1]; from Cc1cccc(C)c1-c1cc(OC[C@@H](CC23CC(C2)C3)NCc2cnc3sc(C4CC4)cc3n2)nc(NS(=O)(=O)c2cccc(C(=O)O)c2)n1, 8.92 mM, 25.0 °C, 18.0 h): 54%

EC50 [2]: < 1000 nM
Emax [2]: > 60%
Molecule: Cc1cccc(C)c1-c1cc2nc(n1)NS(=O)(=O)c1cccc(c1)C(=O)N(Cc1cnc3c(F)c(C4(C)CC4)n(C)c3n1)[C@H](CC1(C)CC1)CO2 [IV-93, (11R)-6-(2,6-dimethylphenyl)-12-[[7-fluoro-5-methyl-6-(1-methylcyclopropyl)pyrrolo[2,3-b]pyrazin-3-yl]methyl]-11-[(1-methylcyclopropyl)methyl]-2,2-dioxo-9-oxa-2λ^6-thia-3,5,12,19-tetraza-tricyclo[12.3.1.14,8]nonadeca-1(18),4(19),5,7,14,16-hexaen-13-one]
ring closure, yield after HPLC ([1]; from Cc1cccc(C)c1-c1cc(OC[C@@H](CC2(C)CC2)NCc2cnc3c(F)c(C4(C)CC4)n(C)c3n2)nc(NS(=O)(=O)c2cccc(C(=O)O)c2)n1, 10.1 mM, 25.0 °C, 16.5 h): 20%

Molecule: (5P,11R)-6-[2-(cyclopentylmethyl)-6-methylphenyl]-11-(2,2-dimethylpropyl)-7-methyl-12-{[5-methyl-6-(propan-2-yl)-5H-pyrrolo[2,3-b]pyrazin-3-yl]methyl}-9-oxa-2λ^6-thia-3,5,12,19-tetraazatricyclo[12.3.1.1∧{4,8}]nonadeca-1(17),4(19),5,7,14(18),15-hexaene-2,2,13-trione
ring closure, yield after HPLC ([1]; 9.74 mM): 45%

Molecule: (5P,11R)-7-methyl-6-[2-methyl-6-(2-methylpropyl)phenyl]-12-({5-methyl-6-[1-(trifluoromethyl)cyclopropyl]-5H-pyrrolo[2,3-b]pyrazin-3-yl}methyl)-11-[(propan-2-yloxy)methyl]-9-oxa-2λ^6-thia-3,5,12,19-tetraazatricyclo[12.3.1.1∧{4,8}]nonadeca-1(18),4(19),5,7,14,16-hexaene-2,2,13-trione
ring closure, yield after HPLC ([1]; 13.9 mM, 25.0 °C): 65%

Molecule: (5P,11R)-11-({bicyclo[1.1.1]pentan-1-yl}methyl)-12-({6-tert-butyl-5-methyl-5H-pyrrolo[2,3-b]pyrazin-3-yl}methyl)-7-methyl-6-[2-methyl-6-(2-methylpropyl)phenyl]-9-oxa-2λ^6-thia-3,5,12,19-tetraazatricyclo[12.3.1.1∧{4,8}]nonadeca-1(17),4(19),5,7,14(18),15-hexaene-2,2,13-trione
ring closure, yield after HPLC ([1]; 22.6 mM, 25.0 °C): 76%

Molecule: (6P,11S)-12-({6-tert-butyl-5-methyl-5H-pyrrolo[2,3-b]pyrazin-3-yl}methyl)-7-methyl-6-[2-methyl-6-(2-methylpropyl)phenyl]-11-[(trifluoromethoxy)methyl]-9-oxa-2λ^6-thia-3,5,12,19-tetraazatricyclo[12.3.1.1∧{4,8}]nonadeca-1(17),4,6,8(19),14(18),15-hexaene-2,2,13-trione
ring closure, yield after HPLC ([1]; 8.87 mM, 25.0 °C): 36%

Emax ([2]; 18-24 hours): > 60%
EC50 [2]: 1000 to 3000 nM
Molecule: Cc1cccc(C)c1-c1cc2nc(n1)NS(=O)(=O)c1cccc(c1)C(=O)N(Cc1nc3cc(C4CC4)oc3cc1F)[C@H](CC1(C)CC1)CO2 [Compound I-197, (11R)-12-[(2-cyclopropyl-6-fluoro-furo[3,2-b]pyridin-5-yl)methyl]-6-(2,6-dimethylphenyl)-11-[(1-methylcyclopropyl)methyl]-2,2-dioxo-9-oxa-2λ^6-thia-3,5,12,19-tetrazatricyclo[12.3.1.14,8]nonadeca-1(18),4(19),5,7,14,16-hexaen-13-one]
ring closure, yield after HPLC ([1]; from Cc1cccc(C)c1-c1cc(OC[C@@H](CC2(C)CC2)NCc2nc3cc(C4CC4)oc3cc2F)nc(NS(=O)(=O)c2cccc(C(=O)O)c2)n1, 19.2 mM, 16.33 h): 62%

EC50 [2]: < 1000 nM
Emax [2]: > 60%
Molecule: CCc1cccc(CC)c1-c1cc2nc(n1)NS(=O)(=O)c1cccc(c1)C(=O)N(Cc1cnc3c(CCOC)c(C(C)(C)C)n(C)c3n1)[C@H](CC(C)C)CO2 [IV-92, (11R)-12-[[6-tert-butyl-7-(2-methoxyethyl)-5-methyl-pyrrolo[2,3-b]pyrazin-3-yl]methyl]-6-(2,6-diethylphenyl)-11-isobutyl-2,2-dioxo-9-oxa-2λ^6-thia-3,5,12,19-tetrazatricyclo[12.3.1.14,8]nonadeca-1(18),4(19),5,7,14,16-hexaen-13-one]
ring closure, yield after HPLC ([1]; from CCc1cccc(CC)c1-c1cc(OC[C@@H](CC(C)C)NCc2cnc3c(CCOC)c(C(C)(C)C)n(C)c3n2)nc(NS(=O)(=O)c2cccc(C(=O)O)c2)n1, 34.0 mM, 25.0 °C, 2.0 h): 22%

EC50 [2]: < 1000 nM
Emax [2]: > 60%
Molecule: Cc1cccc(C)c1-c1cc2nc(n1)NS(=O)(=O)c1cccc(c1)C(=O)N(Cc1cnc3cc(C(C)(C)C(F)(F)F)n(C)c3n1)[C@H](CC13CC(C1)C3)CO2 [IV-102, (11R)-11-(1-bicyclo[1.1.1]pentanylmethyl)-6-(2,6-dimethylphenyl)-12-[[5-methyl-6-(2,2,2-trifluoro-1,1-dimethyl-ethyl)pyrrolo[2,3-b]pyrazin-3-yl]methyl]-2,2-dioxo-9-oxa-2λ^6-thia-3,5,12,19-tetrazatricyclo[12.3.1.14,8]nonadeca-1(18),4(19),5,7,14,16-hexaen-13-one]
ring closure, yield after HPLC ([1]; from Cc1cccc(C)c1-c1cc(OC[C@@H](CC23CC(C2)C3)NCc2cnc3cc(C(C)(C)C(F)(F)F)n(C)c3n2)nc(NS(=O)(=O)c2cccc(C(=O)O)c2)n1, 9.8 mM, 25.0 °C, 4.0 h): 65%

Molecule: Cc1cccc(C)c1-c1cc2nc(n1)NS(=O)(=O)c1cccc(c1)C(=O)N(Cc1cnc3cc(C(C)(C)C)n(C)c3n1)[C@H](C1CCCO1)CO2 (single isomer, unassigned; isomer a)
ring closure, yield after HPLC ([1]; from Cc1cccc(C)c1-c1cc(OC[C@H](NCc2cnc3cc(C(C)(C)C)n(C)c3n2)C2CCCO2)nc(NS(=O)(=O)c2cccc(C(=O)O)c2)n1, 13.2 mM, 25.0 °C, 20.0 h): 53%

Molecule: Cc1cccc(C)c1-c1cc2nc(n1)NS(=O)(=O)c1cccc(c1)C(=O)N(Cc1cnc3oc(C(C)(C)COCc4ccccc4)cc3n1)[C@H](CC13CC(C1)C3)CO2
ring closure, yield after HPLC ([1]; from Cc1cccc(C)c1-c1cc(OC[C@@H](CC23CC(C2)C3)NCc2cnc3oc(C(C)(C)COCc4ccccc4)cc3n2)nc(NS(=O)(=O)c2cccc(C(=O)O)c2)n1, 31.3 mM, 16.0 h): 69%

Molecule: Cc1cccc(C)c1-c1cc2nc(n1)NS(=O)(=O)c1cccc(c1)C(=O)N(Cc1cnc3cc(C(C)(C)C)n(C)c3n1)[C@H](C1CCCO1)CO2 (single isomer, unassigned; isomer b)
ring closure, yield after HPLC ([1]; from Cc1cccc(C)c1-c1cc(OC[C@H](NCc2cnc3cc(C(C)(C)C)n(C)c3n2)C2CCCO2)nc(NS(=O)(=O)c2cccc(C(=O)O)c2)n1, 15.5 mM, 25.0 °C, 20.0 h): 55%

Molecule: Cc1cccc(C)c1-c1cc2nc(n1)NS(=N)(=O)c1cccc(c1)C(=O)N(Cc1cnc3oc(C4CC4)cc3n1)[C@H](CC(C)(C)C)CO2 (single isomer, unassigned; isomer a)
ring closure, yield after HPLC ([1]; from 3-[[[4-[(2R)-2-[(6-Cyclopropylfuro[2,3-b]pyrazin-2-yl)methylamino]-4,4-dimethyl-pentoxy]-6-(2,6-dimethylphenyl)pyrimidin-2-yl]amino]sulfonimidoyl]benzoic acid (hydrochloride salt) (isomer A), 14.2 mM): 23%
